Results reported in US10201558B2, “Compositions of selenoorganic compounds and methods of use thereof” (Alltech, Inc., priority 2014, dated 2019).
Entries after “also recorded” stand apart in the source; their conditions may differ.

How the values were obtained:
[1] = test system: phosphorylated Foxo3 (threonine 32); assay: Western blot of phosphorylated Foxo3 in APP/PS1 mouse brains; assay type: in vivo; details: APP/PS1 mouse brain, Compound C diet vs control diet
Protocol: Male APPΔNLh/ΔNLh×PS1P246 L/246 L knock-in model mice of Alzheimer's disease (abbreviated APP/PS1) were genotyped using standard primers for human APP (Amyloid Precursor Protein) and human PS1 (PSEN1).
At 12 months of age, the mice were euthanized and the brains quickly removed, the cerebellum isolated and the hemispheres snap-frozen in liquid nitrogen and then stored at −80° C. for further immunohistochemistry (IHC), protein and RNA analysis. All procedures conducted on these animal studies were pre-approved by the University of Kentucky IACUC committee.
Frozen hemispheres of control- and Compound C-treated APP/PS1 mice were weighed and homogenized in PBS buffer, and then subsequently extracted with RIPA buffer (Sigma) containing complete proteinase and phosphatase inhibitors (Fisher Scientific). Protein levels in the samples were determined by micro-BCA protein analysis according to the manufacturer's protocol. […] Positive signals on the membrane blots were detected using Amersham's enhanced chemiluminescence Western Blotting Prime Detection reagents (GE healthcare Lifescience, Pittsburgh, Pa.). Images of these luminescence signals on the membrane blots were captured using the LI-COR Odyssey Fc Image system (Lincoln, Nebr.). […]

[2] = test system: gene transcripts in the brains of APP/PS1 mice; assay: Microarray analysis of RNA expression in the brains of APP/PS1 mice; assay type: in vivo, mouse
APOE4 = assay: Western blot of APOE4 protein in IMR-32 cells; assay type: cell-based, human; details: 150 ppb
Protocol: IMR-32 cells were seeded on 6-well plates and then treated with control and various compounds for 6 hours and 24 hours, as described above. After treatments, cells were rinsed with ice-cold PBS and lysed in ice-cold RIPA buffer containing complete proteinase and phosphatase inhibitors (Thermo-Fisher Scientific, Waltham, Mass.) on ice for 30 min Cell lysates were collected using a cell scraper and transfer pipette and then centrifuged at 12000×g for 30 min at 4° C. to remove the DNA pellet and obtain the protein extract. Protein levels in the supernatant of these cell lysates were determined using the Pierce Micro-BCA protein assay kit (Thermo Scientific-Piece Biotechnology, Rockford, Ill.) according to the manufacturer's protocol […]
Positive signals on the membrane blots were detected using Amersham's enhanced chemiluminescence (ECL) Western Blotting Prime Detection reagents (GE healthcare Lifescience, Pittsburgh, Pa.). Images of these luminescence signals on the membrane blots were captured using the LI-COR Odyssey Fc Image system (Lincoln, Nebr.). […] Protein band densities in the Western blots were determined using the Li—COR Image studio software or NIH ImageJ software, and then normalized by ACTB protein level in each sample. […]

phosphorylated-p38 = assay: Western blot of phosphorylated-p38 in APP/PS1 mouse brains; assay type: in vivo; details: APP/PS1 mice, Compound C diet vs control diet
Protocol: Male APPΔNLh/ΔNLh×PS1P246 L/246 L knock-in model mice of Alzheimer's disease (abbreviated APP/PS1) were genotyped using standard primers for human APP (Amyloid Precursor Protein) and human PS1 (PSEN1). These APP/PS1 mice starting at the age of 6 months, were fed either a control diet containing normal levels of selenium (0.3 ppm from plant and inorganic selenium salt sources) or an experimental diet containing Compound C (the control diet to which was added 1 ppm Se from Compound C) for 6 months. […]
Frozen hemispheres of control- and Compound C-treated APP/PS1 mice were weighed and homogenized in PBS buffer, and then subsequently extracted with RIPA buffer (Sigma) containing complete proteinase and phosphatase inhibitors (Fisher Scientific). Protein levels in the samples were determined by micro-BCA protein analysis according to the manufacturer's protocol. […] Positive signals on the membrane blots were detected using Amersham's enhanced chemiluminescence Western Blotting Prime Detection reagents (GE healthcare Lifescience, Pittsburgh, Pa.). Images of these luminescence signals on the membrane blots were captured using the LI-COR Odyssey Fc Image system (Lincoln, Nebr.). Protein band densities in Western blots were determined using NIH Image J software, and then normalized by Actb levels in each samples to obtain the protein levels.

[3] = APP/PS1 mouse brain, Compound C diet vs control diet

Compound: C[Se]C[C@H]1O[C@@H](n2cnc3c(N)ncnc32)C(O)C1O (stereo in doubt) [Compound C, 5′-deoxy-5′-methylselenoadenosine]
- phosphorylated Foxo3 at threonine 32 (pFoxo3) protein [1]: inhibition; also recorded: less abundant; also recorded: significant decrease
- number of genes with regulated expression in the brains ([2]; APP/PS1 mice, fold change of more than 1.2): 2217 genes
- Fold Change, Akap5 [2, 3]: 1.589 fold
- Fold Change, Apbb1 [2, 3]: −1.293 fold
- Fold Change, App [2, 3]: −1.22 fold
- Fold Change, Bcl2 [2, 3]: 1.246 fold
- Fold Change, Camk2a [2, 3]: −1.67 fold
- Fold Change, Cnr1 [2, 3]: −1.492 fold
- Fold Change, Ddx5 [2, 3]: 1.26 fold
- Fold Change, Dlx5 [2, 3]: 2.09 fold
- Fold Change, Drd1 [2, 3]: 4.22 fold
- Fold Change, Foxp2 [2, 3]: 2.52 fold
- Fold Change, Gabra1 [2, 3]: −1.407 fold
- Fold Change, Gabra2 [2, 3]: 1.275 fold
- Fold Change, Gabrg1 [2, 3]: 1.375 fold
- Fold Change, Gad2 [2, 3]: 1.69 fold
- Fold Change, Gpr6 [2, 3]: 9.07 fold
- Fold Change, Gpr88 [2, 3]: 6.47 fold
- Fold Change, Grm4 [2, 3]: 1.418 fold
- Fold Change, Htr2c [2, 3]: 1.797 fold
- Fold Change, Isl1 [2, 3]: 11.32 fold
- Fold Change, Mapk8 [2, 3]: −1.289 fold
- Fold Change, Mapt [2, 3]: −1.21 fold
- Fold Change, Meis2 [2, 3]: 2.04 fold
- Fold Change, Nrxn1 [2, 3]: −1.444 fold
- Fold Change, Pak1 [2, 3]: −1.201 fold
- Fold Change, Pde10a [2, 3]: 2.91 fold
- Fold Change, Penk [2, 3]: 4.068 fold
- Fold Change, Prdx1 [2, 3]: 1.272 fold
- Fold Change, Prkacb [2, 3]: −1.396 fold
- Fold Change, Prkar2b [2, 3]: 1.439 fold
- Fold Change, Prkcd [2, 3]: 1.813 fold
- Fold Change, Prnp [2, 3]: −1.256 fold
- Fold Change, Rarb [2, 3]: 4.03 fold
- Fold Change, Rims1 [2, 3]: −1.459 fold
- Fold Change, Scarb1 [2, 3]: 1.56 fold
- Fold Change, Scp2 [2, 3]: 1.204 fold
- Fold Change, Sez6 [2, 3]: 1.33 fold
- Fold Change, Sod1 [2, 3]: 1.274 fold
- Fold Change, Sorl1 [2, 3]: −1.41 fold
- Fold Change, Sox2 [2, 3]: 1.274 fold
- Fold Change, Tac1 [2, 3]: 3.36 fold
- Fold Change, ZIC1 [2, 3]: 3.25 fold
- Fold Change, Zic3 [2, 3]: 2.28 fold
- Fold Change, Zic4 [2, 3]: 1.75 fold
- Fold Change, Zic5 [2, 3]: 1.53 fold
- Foxo 1, 3 and 4 mRNA levels [2, 3]: no significant change
- APOE4 protein levels (APOE4; 6 hours): not for 6 hour
- APOE4 protein levels (APOE4; 24 hours): markedly decreased
- phosphorylated-p38 protein levels in the brains (phosphorylated-p38): reduced; also recorded: decreased
